Reference: US20130216666A1, “CASHEW NUT SHELL LIQUID WITH IMPROVED STABILITY” (IDEMITSU KOSAN CO., LTD., priority 2010, published 2013)
Like-named read-outs stand apart in the source and are kept apart here.

Settings: 80° C.
Description: The glycine was prepared as a 10% aqueous solution for the addition.
Samples were taken from the beakers after 6 days and analyzed for composition by HPLC.

[1] = 1% by weight in unheated CNSL, Day 0
[2] = 1% by weight in unheated CNSL, Day 6
[3] = 10% by weight in unheated CNSL, Day 0
[4] = 10% by weight in unheated CNSL, Day 6

NCC(=O)O [Glycine, glycine]
Anacardic Acid 15:1 Composition (%) [1]: 40.00% | Anacardic Acid 15:1 concentration [1]: 346.59 ppm | Anacardic Acid 15:2 Composition (%) [1]: 13.66% | Anacardic Acid 15:2 concentration [1]: 118.36 ppm | Anacardic Acid 15:3 Composition (%) [1]: 32.88% | Anacardic Acid 15:3 concentration [1]: 284.89 ppm | Cardanol 15:1 Composition (%) [1]: 5.65% | Cardanol 15:1 concentration [1]: 48.94 ppm | Cardanol 15:2 Composition (%) [1]: 2.42% | Cardanol 15:2 concentration [1]: 20.93 ppm | Cardanol 15:3 Composition (%) [1]: 5.40% | Cardanol 15:3 concentration [1]: 46.76 ppm | Anacardic Acid 15:1 Composition (%) [2]: 23.47% | Anacardic Acid 15:1 concentration [2]: 78.82 ppm | Anacardic Acid 15:2 Composition (%) [2]: 8.29% | Anacardic Acid 15:2 concentration [2]: 27.85 ppm | Anacardic Acid 15:3 Composition (%) [2]: 18.80% | Anacardic Acid 15:3 concentration [2]: 63.14 ppm | Cardanol 15:1 Composition (%) [2]: 21.95% | Cardanol 15:1 concentration [2]: 73.71 ppm | Cardanol 15:2 Composition (%) [2]: 7.93% | Cardanol 15:2 concentration [2]: 26.64 ppm | Cardanol 15:3 Composition (%) [2]: 19.54% | Cardanol 15:3 concentration [2]: 65.62 ppm | inhibition of the decarboxylation (1 and 10% by weight, 6 days): subtle inhibition | Anacardic Acid 15:1 Composition (%) [3]: 40.00% | Anacardic Acid 15:1 concentration [3]: 346.59 ppm | Anacardic Acid 15:2 Composition (%) [3]: 13.66% | Anacardic Acid 15:2 concentration [3]: 118.36 ppm | Anacardic Acid 15:3 Composition (%) [3]: 32.88% | Anacardic Acid 15:3 concentration [3]: 284.89 ppm | Cardanol 15:1 Composition (%) [3]: 5.65% | Cardanol 15:1 concentration [3]: 48.94 ppm | Cardanol 15:2 Composition (%) [3]: 2.42% | Cardanol 15:2 concentration [3]: 20.93 ppm | Cardanol 15:3 Composition (%) [3]: 5.40% | Cardanol 15:3 concentration [3]: 46.76 ppm | Anacardic Acid 15:1 Composition (%) [4]: 28.28% | Anacardic Acid 15:1 concentration [4]: 94.58 ppm | Anacardic Acid 15:2 Composition (%) [4]: 9.99% | Anacardic Acid 15:2 concentration [4]: 33.42 ppm | Anacardic Acid 15:3 Composition (%) [4]: 22.66% | Anacardic Acid 15:3 concentration [4]: 75.77 ppm | Cardanol 15:1 Composition (%) [4]: 17.35% | Cardanol 15:1 concentration [4]: 58.02 ppm | Cardanol 15:2 Composition (%) [4]: 6.27% | Cardanol 15:2 concentration [4]: 20.97 ppm | Cardanol 15:3 Composition (%) [4]: 15.45% | Cardanol 15:3 concentration [4]: 51.65 ppm
